Key:
[1] = target: T1, hSTING (stimulator of interferon genes) (Homo sapiens, UniProt Q86WV6); assay: IFN-β luciferase reporter in STING-transfected, digitonin-permeabilized HEK293T cells (vector control inactive); type: cell-based
T1 construct: gene STING1; hSTING cDNA with C-terminal Flag tag expressed in HEK293T cells

[2] = target: T2, hSTING (stimulator of interferon genes) (Homo sapiens, UniProt Q86WV6, H232R); assay: isothermal titration calorimetry; DSF shift (+[…]°C); type: binding
T2 construct: gene STING1; C-terminal domain, residues 149-341, C-terminal 6×His tag (WT = R232)
T2 sequence (Q86WV6 149-341 H232R): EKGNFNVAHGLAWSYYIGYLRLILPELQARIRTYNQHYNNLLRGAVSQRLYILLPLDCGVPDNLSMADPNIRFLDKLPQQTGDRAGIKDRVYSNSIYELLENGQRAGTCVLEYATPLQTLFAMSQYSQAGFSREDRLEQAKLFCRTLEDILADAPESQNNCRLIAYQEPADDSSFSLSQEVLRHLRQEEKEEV

[3] = target: T3, hSTING (stimulator of interferon genes) (Homo sapiens, UniProt Q86WV6, G230A/H232R); assay: isothermal titration calorimetry; DSF shift (+[…]°C); type: binding
T3 construct: gene STING1; C-terminal domain, residues 149-341, C-terminal 6×His tag (WT = R232)
T3 sequence (Q86WV6 149-341 G230A/H232R): as the sequence (Q86WV6 149-341 H232R) above, with G82A counted along it

T1 sequence (Q86WV6 whole entry): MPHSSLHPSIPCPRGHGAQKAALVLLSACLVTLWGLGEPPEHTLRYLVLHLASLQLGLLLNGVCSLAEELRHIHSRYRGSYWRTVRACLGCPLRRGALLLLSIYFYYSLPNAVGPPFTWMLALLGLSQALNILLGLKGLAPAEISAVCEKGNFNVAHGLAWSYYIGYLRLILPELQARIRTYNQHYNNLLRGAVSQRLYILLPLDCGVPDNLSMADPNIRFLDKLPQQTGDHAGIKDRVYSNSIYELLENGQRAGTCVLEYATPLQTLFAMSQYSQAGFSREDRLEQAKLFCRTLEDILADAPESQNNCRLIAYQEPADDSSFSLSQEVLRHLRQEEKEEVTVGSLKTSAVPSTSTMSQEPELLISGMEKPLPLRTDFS

Row | SMILES | IFN-β luciferase reporter in STING-transfected, digitonin-permeabilized HEK293T [1] | Kd [2] [µM] | Kd [3] [µM]
1 | Nc1ncnc2c1ncn2[C@@H]1O[C@@H]2COP(=O)(O)O[C@H]3[C@@H](O)[C@H](n4cnc5c(N)ncnc54)O[C@@H]3COP(=O)(O)O[C@H]2[C@H]1O [c-di-AMP] | 16.1 fold (ratio to unstimulated) | – | –
2 | Nc1nc2c(ncn2[C@@H]2O[C@@H]3CO[P@](=O)(O)O[C@H]4[C@@H](O)[C@H](n5cnc6c(=O)[nH]c(N)nc65)O[C@@H]4CO[P@](=O)(O)O[C@H]3[C@H]2O)c(=O)[nH]1 [c-di-GMP] | – | 3.3 | 1.9

Source: article PMC3804601, “Single Nucleotide Polymorphisms of Human STING Can Affect Innate Immune Response to Cyclic Dinucleotides” (PLoS ONE, 2013)
